Results taken from patent publication US11160489B2, “Wireless optofluidic systems for programmable in vivo pharmacology and optogenetics” (THE BOARD OF TRUSTEES OF THE UNIVERSITY OF ILLINOIS, priority 2015, dated 2021).
“Also recorded” adds a separate entry of the source.

Molecular target: T1, μ-opioid receptor (MOPR) (Mus musculus, UniProt P42866)
T1 construct: from tissue; host or cells: ventral tegmental area of living wild-type C57Bl6 mice (in vivo)
Experiment: Contraversive rotation/locomotor testing assay after wireless intra-VTA infusion
Assay type: in vivo
Settings: 200 pmol, wireless unilateral intra-VTA infusion, within-subject vs ACSF vehicle, wild-type mice, n=7
From the text: As a proof-of-principle within-subject in vivo pharmacology experiment, two chambers of each device were loaded with different pharmacological agents; one with the synthetic opioid peptide and MOPR agonist, [D-Ala^2, N-MePhe^4, Gly-ol]-enkephalin (DAMGO, 200 pmol, Tocris), and one with artificial cerebral spinal fluid (ACSF) as a vehicle control. In a counter-balanced design, either the DAMGO or vehicle was wirelessly delivered into the VTA of freely behaving animals over a distance of ˜1 m away from the animal (FIGS. 88, A and B).
After the mice were acclimatized to the holding facility for seven to nine days, they were anaesthetized in an induction chamber (4% Isolflurane) and placed in a stereotaxic frame (Kopf Instruments, Model 1900) where they were maintained at 1-2% isoflurane. […] For the DAMGO-induced rotation experiment, mice were implanted with the microfluidic device above the VTA (stereotaxic coordinates from bregma (mm): AP:-3.10, ML: +/−0.50, DV: −4.25). […] A standard electrode holder (KOPF 1770) was adapted to implant the microfluidic and optofluidic devices. […] The implants were secured using two bone screws (CMA, 743102) and affixed with dental cement (Lang Dental). C571Bl6 mice were allowed to recover for 5 days prior to behavioral testing.
C571Bl6 mice with microfluidic devices implanted above the VTA were placed in the center of the same arena used for the OFT and allowed to roam freely for 1 hr. Wireless infusion of vehicle or DAMGO was initiated and movements were video recorded and analyzed using Ethovision. Rotations were defined as full 360° revolutions in the path of movement.

T1 sequence (P42866 whole entry): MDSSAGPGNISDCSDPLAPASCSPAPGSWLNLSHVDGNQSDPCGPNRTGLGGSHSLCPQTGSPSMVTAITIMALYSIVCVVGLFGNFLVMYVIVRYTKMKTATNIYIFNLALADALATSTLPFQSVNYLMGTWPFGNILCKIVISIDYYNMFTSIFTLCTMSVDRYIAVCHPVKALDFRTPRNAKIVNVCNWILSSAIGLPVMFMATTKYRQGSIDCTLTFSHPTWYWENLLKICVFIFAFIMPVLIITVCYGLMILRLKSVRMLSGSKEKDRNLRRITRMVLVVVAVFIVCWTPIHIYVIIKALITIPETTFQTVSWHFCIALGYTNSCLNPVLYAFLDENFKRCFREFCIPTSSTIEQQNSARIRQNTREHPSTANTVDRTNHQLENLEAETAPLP

Compound: C[C@@H](NC(=O)[C@@H](N)Cc1ccc(O)cc1)C(=O)NCC(=O)N(C)[C@@H](Cc1ccccc1)C(=O)NCCO [DAMGO, [D-Ala^2, N-MePhe^4, Gly-ol]-enkephalin]
- contraversive 360° rotations: significant increase; also recorded: stereotypical rotations contralateral to injection site
- overall locomotor activity: significant increase; also recorded: robust increase in overall locomotor activity
